Results taken from patent US6395932B1, “1,2-diphenyl-2-propen-1-one derivatives” (Santen Pharmaceutical Co., Ltd., priority 1999, dated 2002).
pEC50: −log10 of the molar value.

System: bovine cultured trabecular meshwork cells
Assay: Effects on morphology of bovine cultured trabecular meshwork cells (image analysis of cell area)
Assay type: cell-based
Conditions: Bos taurus, 3 h, drug treatment for three hours at 37° C., rate of change in area by image analysis, read-out: EC50 (concentration required to reduce the cell area of the trabecular meshwork cells by 50%)
Description: In order to study utility of the present compounds in glaucoma, effects of the present compounds on morphology of trabecular meshwork cells were investigated.
The possibility has been reported that drugs having effects of increasing aqueous humor outflow can be found by evaluating effects of drugs on morphology of cultured trabecular meshwork cells (Invest. Ophthalmol. Vis. Sci., 33, 2631-2640 (1992)). Accordingly, effects of the present compounds on morphology of bovine cultured trabecular meshwork cells were studied in the similar manner to the method described in the above-mentioned literature.
Morphological changes in bovine cultured trabecular meshwork cells by adding the present compounds were quantitatively evaluated by image analysis.
Bovine trabecular meshwork cells (passage number 2 to 5) cultured in a basal medium for mammalian cell culture D-MEM (Dulbecco's Modified Eagle Medium, manufactured by Gibco Co., Ltd.) containing fetal bovine serum (10%), amphotericin B (2.5 μg/ml) and gentamicin (50 μg/ml) were treated with a trypsin-EDTA solution (0.05% trypsin, 0.53 mM EDTA·4Na) 24 hours before the later drug treatment and seeded in a 24-well plate (10^4 cells/well). Twelve hours before the later drug treatment, the cells were washed with phosphate-buffered physiological saline, and then the medium was replaced by D-MEM containing amphotericin B (2.5 μg/ml) and gentamicin (50 μg/ml) (hereinafter referred to as “medium A”).
A test compound was dissolved in dimethyl sulfoxide (DMSO), and the medium A was added to the solution, followed by sterilizing the solution by filtration. The medium A was further added to the solution to dilute it at a prescribed concentration. […]
Photographed cell images were incorporated from the photographs into an image analysis system with a CCD camera (manufactured by HAMAMATU Co., Ltd.). Outlines of the incorporated cell images were traced, and areas were measured. […]

Row | pEC50 | Compound
1 | 6.24 | C=C(C(=O)c1ccc(/C=C/CN(C)C)cc1)c1ccccc1 [Compound No. 4-1, 1-[4-[(E)-3-(Dimethylamino)-1-propenyl]phenyl]-2-phenyl-2-propen-1-one]
2 | 6.08 | C=C(C(=O)c1ccc(CCCN(C)C)cc1)c1ccccc1 [Compound No. 4-2, 1-[4-[3-(Dimethylamino)propyl]phenyl]-2-phenyl-2-propen-1-one]
3 | 4.21 | C=C(CC)C(=O)c1ccc(OCC(=O)O)c(Cl)c1Cl [Ethacrynic acid, reference compound]
